Assay [1] concerns HCT-116. The assay is described as follows: In vitro cytotoxic activity against human cancer cell line HCT116 by using MTT assay. The assay is classed as functional, cell-based.
A further assay relates to K562. The assay is described as follows: In vitro cytotoxic activity against human cancer cell line K562 by using MTT assay. The assay is classed as functional, cell-based.
A further assay relates to P388. The assay is described as follows: In vitro cytotoxic activity against murine cancer cell line P388 by using MTT assay. The assay is classed as functional, cell-based. The following applies: Mus musculus.
The target in a further assay is T1, DNA topoisomerase 2 (Drosophila melanogaster, UniProt P15348).
T1 sequence (P15348 whole entry): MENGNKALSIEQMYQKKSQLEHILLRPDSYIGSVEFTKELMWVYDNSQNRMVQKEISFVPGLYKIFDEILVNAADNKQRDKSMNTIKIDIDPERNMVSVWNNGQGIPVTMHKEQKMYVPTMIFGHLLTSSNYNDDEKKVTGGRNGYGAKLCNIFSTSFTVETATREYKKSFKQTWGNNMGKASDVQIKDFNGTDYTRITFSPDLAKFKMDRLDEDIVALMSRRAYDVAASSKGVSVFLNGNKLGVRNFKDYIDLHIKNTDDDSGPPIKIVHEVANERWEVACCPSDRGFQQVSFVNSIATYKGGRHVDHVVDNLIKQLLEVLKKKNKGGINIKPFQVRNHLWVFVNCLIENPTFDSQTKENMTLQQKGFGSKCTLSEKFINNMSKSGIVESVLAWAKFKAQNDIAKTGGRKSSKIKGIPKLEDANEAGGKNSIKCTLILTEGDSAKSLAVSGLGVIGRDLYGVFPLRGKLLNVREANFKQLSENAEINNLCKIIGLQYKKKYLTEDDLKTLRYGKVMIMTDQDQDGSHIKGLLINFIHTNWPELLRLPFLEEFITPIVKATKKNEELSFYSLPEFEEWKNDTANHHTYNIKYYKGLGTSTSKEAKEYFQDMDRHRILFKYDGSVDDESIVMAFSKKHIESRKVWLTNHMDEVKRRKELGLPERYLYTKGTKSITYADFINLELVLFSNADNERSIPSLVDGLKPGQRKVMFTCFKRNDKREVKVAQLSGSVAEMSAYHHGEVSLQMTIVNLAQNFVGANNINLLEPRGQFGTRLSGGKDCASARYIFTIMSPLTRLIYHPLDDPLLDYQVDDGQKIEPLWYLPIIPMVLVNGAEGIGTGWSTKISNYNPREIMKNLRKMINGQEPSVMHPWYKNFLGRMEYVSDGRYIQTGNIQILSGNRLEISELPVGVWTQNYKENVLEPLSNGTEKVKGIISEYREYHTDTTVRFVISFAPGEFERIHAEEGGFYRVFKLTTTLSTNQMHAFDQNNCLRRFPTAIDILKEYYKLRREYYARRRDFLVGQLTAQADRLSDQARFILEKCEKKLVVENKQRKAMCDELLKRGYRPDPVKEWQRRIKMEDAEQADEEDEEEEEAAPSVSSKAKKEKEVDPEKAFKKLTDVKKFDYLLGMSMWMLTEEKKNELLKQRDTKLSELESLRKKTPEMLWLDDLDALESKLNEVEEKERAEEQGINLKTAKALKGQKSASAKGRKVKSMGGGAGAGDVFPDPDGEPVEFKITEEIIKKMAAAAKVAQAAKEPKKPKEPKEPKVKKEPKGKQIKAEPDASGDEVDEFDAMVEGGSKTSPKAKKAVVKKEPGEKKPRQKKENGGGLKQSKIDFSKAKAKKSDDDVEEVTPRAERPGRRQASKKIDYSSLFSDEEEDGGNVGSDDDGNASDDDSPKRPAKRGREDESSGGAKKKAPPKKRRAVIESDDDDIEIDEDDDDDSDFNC
As to the kind of experiment: In vitro inhibitory activity against topoisomerase II (Topo II) by using decatenation assay.

In another assay the target is T2, DNA topoisomerase 1 (Mus musculus, UniProt Q04750).
T2 sequence (Q04750 whole entry): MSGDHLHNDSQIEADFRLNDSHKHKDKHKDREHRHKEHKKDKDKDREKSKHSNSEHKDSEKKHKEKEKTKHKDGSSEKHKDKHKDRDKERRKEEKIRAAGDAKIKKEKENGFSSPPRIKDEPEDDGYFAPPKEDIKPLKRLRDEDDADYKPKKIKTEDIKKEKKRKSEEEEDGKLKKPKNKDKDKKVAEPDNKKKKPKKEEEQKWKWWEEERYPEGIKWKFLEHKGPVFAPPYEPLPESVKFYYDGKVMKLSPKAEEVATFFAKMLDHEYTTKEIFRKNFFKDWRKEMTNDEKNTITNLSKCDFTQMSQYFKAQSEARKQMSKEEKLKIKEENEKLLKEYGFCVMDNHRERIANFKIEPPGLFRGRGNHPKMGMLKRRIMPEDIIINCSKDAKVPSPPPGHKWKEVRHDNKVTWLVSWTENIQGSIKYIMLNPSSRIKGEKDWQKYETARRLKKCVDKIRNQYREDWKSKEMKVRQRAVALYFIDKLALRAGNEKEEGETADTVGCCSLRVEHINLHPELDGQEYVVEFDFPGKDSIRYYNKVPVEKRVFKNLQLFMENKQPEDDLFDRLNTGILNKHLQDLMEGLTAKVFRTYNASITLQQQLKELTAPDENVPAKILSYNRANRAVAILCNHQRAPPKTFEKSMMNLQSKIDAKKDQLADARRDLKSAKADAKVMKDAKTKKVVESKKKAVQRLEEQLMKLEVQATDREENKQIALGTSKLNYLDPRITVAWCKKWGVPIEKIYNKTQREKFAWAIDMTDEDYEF
As to the kind of experiment: In vitro inhibitory activity against topoisomerase I (Topo I) by using relaxation assay.

Assay [2] concerns Mus musculus. As to the kind of experiment: In vivo antitumor activity against Colon 26 murine tumor model at a dose of 20 mg/kg administered intravenously. The assay is classed as functional. Particulars: route intravenous; call rule not given here.
Assay [3] relates to Mus musculus. The assay is described as follows: In vivo antitumor activity against Colon 26 murine tumor model at a dose of 10 mg/kg administered intravenously. Particulars: route intravenous. The assay is classed as functional.
For assay [4], the system named is HCT-116. As to the kind of experiment: In vitro cytotoxic activity against HCT116 human cancer cell line at 40 uM; IA means Inactive. The assay is classed as functional, cell-based.

The text below walks through data of ChEMBL document CHEMBL1131976, “Syntheses of novel antitumor dihydroxanthone derivatives with inhibitory activity against DNA topoisomerase II” (Bioorg Med Chem Lett, 1999).

In the case of `Cc1cc(O)c2c(c1)O[C@@]1(C(=O)N(C)C)C(=CC=C[C@H]1O)C2=O`, the 50% inhibitory concentration (IC50) with HCT-116 [1] was 790 nM; in the assay on K562 it was 980 nM; with P388, 150 nM.
Take `Cc1cc(O)c2c(c1)O[C@@]1(C(=O)NCCO)C(=CC=C[C@H]1O)C2=O`: the IC50 with HCT-116 [1] amounted to 7880 nM; in the assay with K562, 10600 nM; against DNA topoisomerase 2 it was 23000 nM; on DNA topoisomerase 1, 102000 nM; in the assay with P388, 2670 nM.
For `COC(=O)[C@]12Oc3cc(C)cc(O)c3C(=O)C1=CC=C[C@H]2O`, the half-inhibitory concentration (IC50) in the assay with HCT-116 [1] amounted to 140 nM; in the assay on K562, 320 nM; on DNA topoisomerase 2, 2200 nM; at DNA topoisomerase 1, 172000 nM; with P388, 24 nM. Further, in the assay with Mus musculus [2], the Activity was 24%.
For `Cc1cc(O)c2c(c1)O[C@@]1(C(=O)N3CCCC3)C(=CC=C[C@H]1O)C2=O`, the values for the IC50 in the assay on HCT-116 [1], in the assay with K562 and in the assay with P388 were 1640 nM, 1520 nM and 560 nM, respectively.
Turning to `Cc1cc(O)c2c(c1)O[C@@]13C(=O)N(C)[C@@H](CC=C1C2=O)[C@H]3O`, the IC50 with HCT-116 [1] is 19600 nM; with K562, 6310 nM; on DNA topoisomerase 2, > 300000 nM; against DNA topoisomerase 1, > 300000 nM.
On to `Cc1cc(O)c2c(c1)O[C@@]1(C(N)=O)C(=CC=C[C@H]1O)C2=O`, for which the half-inhibitory concentration (IC50) in the assay on HCT-116 [1] worked out at 330 nM; with K562 it was 590 nM; against DNA topoisomerase 2, 29000 nM; on DNA topoisomerase 1, 63000 nM; with P388 it was 52 nM. The compound also showed an Activity in the assay with Mus musculus [3] of 42%.
As for `Cc1cc(O)c2c(=O)c3ccccc3oc2c1`, the IC50 entry with HCT-116 [4] was “Not Active”.
With `CNC(=O)[C@]12Oc3cc(C)cc(O)c3C(=O)C1=CC=C[C@H]2O`, the IC50 is 1130 nM with HCT-116 [1]; 2260 nM in the assay with K562; 132000 nM against DNA topoisomerase 2; > 300000 nM on DNA topoisomerase 1; 240 nM in the assay on P388.
